Results on 1 molecule are retold here after publication PMC520810, “Endoplasmic reticulum degradation impedes olfactory G-protein coupled receptor functional expression” (BMC Cell Biology, 2004).

The target in this assay is T1, mOREG olfactory receptor (Olfr73) (Mus musculus, UniProt Q920P2).
T1 construct: gene Or5d18; N-terminal fusion with the first 20 amino acids of rhodopsin (Rho20-mOREG); untagged mOREG also measured
T1 sequence (Q920P2 1-313): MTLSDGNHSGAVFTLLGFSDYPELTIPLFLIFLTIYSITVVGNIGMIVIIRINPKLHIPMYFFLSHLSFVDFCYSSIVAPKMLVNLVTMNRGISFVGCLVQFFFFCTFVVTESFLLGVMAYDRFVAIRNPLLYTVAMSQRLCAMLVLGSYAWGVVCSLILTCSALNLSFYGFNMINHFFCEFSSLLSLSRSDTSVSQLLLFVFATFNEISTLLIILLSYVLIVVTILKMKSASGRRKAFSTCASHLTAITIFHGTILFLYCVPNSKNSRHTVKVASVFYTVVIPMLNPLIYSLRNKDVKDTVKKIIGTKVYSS
In words: calcium imaging (fluo-4) in HEK293 cells co-expressing Rho-mOREG and olfactory CNG channel. The class given is cell-based. The source says:
calcium imaging (fluo-4) in HEK293 cells co-expressing Rho-mOREG and olfactory CNG channel on mOREG olfactory receptor (Olfr73) | Responses to eugenol, a ligand for mOREG, were detected in cells co-expressing Rho-mOREG and CNG

Take `C=CCc1ccc(O)c(OC)c1` [eugenol]: the EC50 was found to be 20.8 µM.
